This is an account of results in ChEMBL document CHEMBL1629619, “qnrD, a novel gene conferring transferable quinolone resistance in Salmonella enterica serovar Kentucky and Bovismorbificans strains of human origin” (2009).

≈ marks a conversion by molar mass, not a printed value. Calls of active or inactive are those of the source.

The test system of experiment [1] is Escherichia coli. Put plainly: Antimicrobial activity against Escherichia coli DH10B harboring pBR322 with Salmonella enterica HN-GSS-2007-057 qnrA1 gene by broth microdilution assay. The experiment is classed as functional. To be noted: K-12 DH10B.
Experiment [2] relates to Escherichia coli. In words: Antimicrobial activity against Escherichia coli DH10B harboring pBR322 by broth microdilution assay. To be noted: K-12 DH10B. The format is functional. On the technique in general: Dilution methods test growth across graded concentrations, often in twofold steps.
The subject of experiment [3] is Escherichia coli. In words: Antimicrobial activity against Escherichia coli DH10B harboring pBR322 with Salmonella enterica HN-GSS-2007-057 qnrD gene by broth microdilution assay. The conditions noted are these: K-12 DH10B. The format is functional.
In experiment [4] the test system is Escherichia coli. In words: Antimicrobial activity against Escherichia coli DH10B by broth microdilution assay. The format is functional. The conditions noted are these: K-12 DH10B.
The subject of experiment [5] is Escherichia coli. Put plainly: Antimicrobial activity against Escherichia coli DH10B harboring pBR322 with Salmonella enterica HN-GSS-2007-057 qnrS1 gene by broth microdilution assay. The experiment is classed as functional. The conditions noted are these: K-12 DH10B.
Experiment [6] can be described thus: Antimicrobial activity against Salmonella enterica serovar Bovismorbificans by broth microdilution assay. The format is functional, Salmonella enterica subsp. enterica serovar Bovismorbificans.
Experiment [7] relates to Escherichia coli. In words: Antimicrobial activity against Escherichia coli DH10B harboring p2007057 by broth microdilution assay. The format is functional. The conditions noted are these: K-12 DH10B.
Experiment [8] can be described thus: Antimicrobial activity against Salmonella enterica serovar Kentucky by broth microdilution assay.
Experiment [9] deals with Salmonella enterica. In words: Antimicrobial activity against Salmonella enterica HN-GSS2006-142 by broth microdilution assay. The format is functional, organism-based.
For experiment [10], the system named is Salmonella enterica. In words: Antimicrobial activity against Salmonella enterica HN-GSS2007-0.033 by broth microdilution assay. The format is functional, organism-based.
Experiment [11] relates to Salmonella enterica. Put plainly: Antimicrobial activity against Salmonella enterica HN-GSS-2007-057 by broth microdilution assay. The format is functional, organism-based.
In experiment [12] the test system is Salmonella enterica. In words: Antimicrobial activity against Salmonella enterica HN-GSS2007-0.056 by broth microdilution assay. The experiment is classed as functional, organism-based.

One may read the MIC as the smallest concentration in the dilution series that meets the test's criterion for growth inhibition. Low values mean inhibition by little substance, high ones a need for much substance.

For the compound `CCn1cc(C(=O)O)c(=O)c2ccc(C)nc21` [NALIDIXIC ACID], the MIC with Escherichia coli [1] came out at 8 µg/mL (≈ 34.4 µM); in the experiment with Escherichia coli [2], 2 µg/mL (≈ 8.61 µM); with Escherichia coli [3], 4 µg/mL (≈ 17.2 µM); with Escherichia coli [4], 2 µg/mL (≈ 8.61 µM); against Escherichia coli [5], 8 µg/mL (≈ 34.4 µM); in experiment [6], 8 µg/mL (≈ 34.4 µM). For the same compound, in the experiment with Escherichia coli [7], the MIC was 8 µg/mL (≈ 34.4 µM).

Compound `O=C(O)c1cn(C2CC2)c2cc(N3CCNCC3)c(F)cc2c1=O` [CIPROFLOXACIN] came in with a minimal inhibitory concentration (MIC) in experiment [8] of 0.125 µg/mL (≈ 0.377 µM).

Consider `CC1COc2c(N3CCN(C)CC3)c(F)cc3c(=O)c(C(=O)O)cn1c23` (stereo unspecified) [OFLOXACIN], for which the MIC stood at 0.25 µg/mL (≈ 0.692 µM) in the experiment with Escherichia coli [1], 0.032 µg/mL (≈ 0.0886 µM) against Escherichia coli [2], 0.125 µg/mL (≈ 0.346 µM) against Escherichia coli [3] and 0.25 µg/mL (≈ 0.692 µM) in the experiment on Escherichia coli [7]. Besides, the result in the experiment on Salmonella enterica [9], in the experiment with Salmonella enterica [10], with Salmonella enterica [11] and with Salmonella enterica [12] was Active.

Turning to `CCn1cc(C(=O)O)c(=O)c2cc(F)c(N3CCNCC3)cc21` [NORFLOXACIN], the MIC against Escherichia coli [1] was determined as 0.25 µg/mL (≈ 0.783 µM); in the experiment with Escherichia coli [2], 0.015 µg/mL (≈ 0.047 µM); against Escherichia coli [3] it was 0.06 µg/mL (≈ 0.188 µM); against Escherichia coli [4] it was 0.015 µg/mL (≈ 0.047 µM); against Escherichia coli [5] it was 0.5 µg/mL (≈ 1.57 µM); with Escherichia coli [7], 0.125 µg/mL (≈ 0.391 µM). For the same compound, the result in the experiment on Salmonella enterica [9], in the experiment with Salmonella enterica [10], in the experiment with Salmonella enterica [11] and with Salmonella enterica [12] was Active.
